Literature values in US7919499B2, “Naltrexone long acting formulations and methods of use” (Alkermes, Inc., priority 2004, dated 2011).
Where two headings read alike, the source gives them in different places.

Tested on: patients with alcohol dependence
Details: oral vs placebo; for Risk difference as % reduction, relapse to heavy drinking / Risk difference (95% CI), relapse to heavy drinking: Hopkins meta-analysis; for Risk difference (95% CI), relapse to heavy drinking: nine studies, fixed effects model
[1] = Bouza et al, short term studies (≦12 weeks), listed as Oral Naltrexone
[2] = Cochrane Review, 12 weeks, listed as Oral Naltrexone

SMILES: O=C1CC[C@@]2(O)[C@H]3Cc4ccc(O)c5c4[C@@]2(CCN3CC2CC2)[C@H]1O5 [oral naltrexone, naltrexone]
- Decrease of odds of relapsing to heavy drinking relative to placebo (Bouza et al, short term studies (≦12 weeks)): 38%
- Decrease of odds of relapsing to heavy drinking relative to placebo [1]: (38% reduction)
- Odds ratio (95% CI), relapse to heavy drinking [1]: 0.62 (0.52, 0.75)
- Decrease of relapse rate relative to placebo (Cochrane Review, 12 weeks): 36%
- Decrease of relapse rate relative to placebo [2]: (36% reduction)
- Relative risk (95% CI), relapse to heavy drinking [2]: 0.64 (0.51, 0.82)
- Risk difference as % reduction, relapse to heavy drinking: 13%
- Risk difference (95% CI), relapse to heavy drinking: 0.13
- Risk difference (95% CI), relapse to heavy drinking (listed as Oral Naltrexone): 0.13 (0.08, 0.17)
- Risk difference as % reduction, relapse to heavy drinking (listed as Oral Naltrexone): (13% reduction)
